Laboratory results published in paper PMC4032265 (PLoS ONE, 2014).
Where “and” joins values, the source holds several entries; their conditions need not be identical. Identical values can stand only once.

How the values were obtained:
[1] = molecular target: δ opioid receptor (Homo sapiens, UniProt P41143); assay: PDSP radioligand binding, δ opioid; conditions: read-out: % inhibition at 10 µM; single concentration 10 µM
[2] = molecular target: T1, α1B adrenergic receptor (Homo sapiens, UniProt P35368); assay: PDSP radioligand binding, α1B; conditions: read-out: % inhibition at 10 µM; single concentration 10 µM
T1 sequence (P35368 1-520): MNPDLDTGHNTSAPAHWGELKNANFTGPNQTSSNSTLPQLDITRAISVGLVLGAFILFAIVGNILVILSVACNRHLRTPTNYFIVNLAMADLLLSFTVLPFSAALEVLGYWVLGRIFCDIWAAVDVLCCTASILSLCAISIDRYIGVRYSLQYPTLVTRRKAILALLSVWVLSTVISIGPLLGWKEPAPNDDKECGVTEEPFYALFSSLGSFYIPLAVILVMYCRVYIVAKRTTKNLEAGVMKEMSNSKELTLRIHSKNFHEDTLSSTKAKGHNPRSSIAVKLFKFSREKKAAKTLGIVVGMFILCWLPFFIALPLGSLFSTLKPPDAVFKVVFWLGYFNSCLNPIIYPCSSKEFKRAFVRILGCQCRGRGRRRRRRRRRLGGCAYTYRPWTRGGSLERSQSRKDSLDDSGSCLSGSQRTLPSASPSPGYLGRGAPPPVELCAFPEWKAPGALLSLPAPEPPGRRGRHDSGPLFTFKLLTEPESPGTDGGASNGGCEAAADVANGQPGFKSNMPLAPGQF

[3] = molecular target: 5HT5A serotonergic receptor (Homo sapiens, UniProt P47898); assay: PDSP radioligand binding, 5HT5A; conditions: read-out: % inhibition at 10 µM; single concentration 10 µM
[4] = molecular target: T2, M4 muscarinic acetylcholine receptor (Homo sapiens, UniProt P08173); assay: PDSP radioligand binding, M4; conditions: read-out: % inhibition at 10 µM; single concentration 10 µM
T2 sequence (P08173 1-479): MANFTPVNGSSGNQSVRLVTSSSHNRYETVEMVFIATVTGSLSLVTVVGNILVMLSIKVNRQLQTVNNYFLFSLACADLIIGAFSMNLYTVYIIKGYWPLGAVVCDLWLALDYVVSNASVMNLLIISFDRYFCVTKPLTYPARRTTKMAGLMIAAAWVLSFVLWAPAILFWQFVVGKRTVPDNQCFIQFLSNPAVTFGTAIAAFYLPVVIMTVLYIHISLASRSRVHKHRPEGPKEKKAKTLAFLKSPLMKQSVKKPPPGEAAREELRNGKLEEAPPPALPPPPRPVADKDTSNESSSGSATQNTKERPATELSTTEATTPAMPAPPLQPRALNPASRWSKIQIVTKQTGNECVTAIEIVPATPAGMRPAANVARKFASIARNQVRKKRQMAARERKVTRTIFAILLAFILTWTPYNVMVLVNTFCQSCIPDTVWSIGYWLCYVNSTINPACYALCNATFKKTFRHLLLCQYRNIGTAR

[5] = molecular target: M3 muscarinic acetylcholine receptor (Homo sapiens, UniProt P20309); assay: PDSP radioligand binding, M3; conditions: read-out: % inhibition at 10 µM; single concentration 10 µM
[6] = test system: GABAA receptor; assay: PDSP radioligand binding, GABAA; conditions: single concentration 10 µM
[7] = molecular target: D1 dopaminergic receptor (Homo sapiens, UniProt P21728); assay: PDSP radioligand binding, D1; conditions: read-out: % inhibition at 10 µM; single concentration 10 µM
[8] = molecular target: D2 dopaminergic receptor (Homo sapiens, UniProt P14416); assay: PDSP radioligand binding, D2; conditions: read-out: % inhibition at 10 µM; single concentration 10 µM
[9] = molecular target: T3, M1 muscarinic acetylcholine receptor (Homo sapiens, UniProt P11229); assay: PDSP radioligand binding, M1; conditions: read-out: % inhibition at 10 µM; single concentration 10 µM
T3 sequence (P11229 1-460): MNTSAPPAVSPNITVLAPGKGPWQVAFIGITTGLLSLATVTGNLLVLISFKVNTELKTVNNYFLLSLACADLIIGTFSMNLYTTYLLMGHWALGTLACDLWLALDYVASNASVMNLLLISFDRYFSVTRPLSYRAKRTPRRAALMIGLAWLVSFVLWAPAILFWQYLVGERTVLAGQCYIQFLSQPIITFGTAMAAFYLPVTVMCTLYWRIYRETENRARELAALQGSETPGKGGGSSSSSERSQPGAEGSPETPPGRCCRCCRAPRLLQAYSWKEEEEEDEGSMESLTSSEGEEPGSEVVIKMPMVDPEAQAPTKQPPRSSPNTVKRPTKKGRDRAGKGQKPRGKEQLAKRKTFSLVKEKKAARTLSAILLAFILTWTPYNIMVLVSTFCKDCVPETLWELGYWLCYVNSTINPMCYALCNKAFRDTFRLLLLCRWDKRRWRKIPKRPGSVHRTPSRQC

[10] = molecular target: β3 adrenergic receptor (Homo sapiens, UniProt P13945); assay: PDSP radioligand binding, β3; conditions: read-out: % inhibition at 10 µM; single concentration 10 µM
[11] = molecular target: 5HT2B serotonergic receptor (Homo sapiens, UniProt P41595); assay: PDSP radioligand binding, 5HT2B
[12] = molecular target: T4, D4 dopaminergic receptor (Homo sapiens, UniProt P21917); assay: PDSP radioligand binding, D4; conditions: read-out: % inhibition at 10 µM; single concentration 10 µM
T4 sequence (P21917 1-419): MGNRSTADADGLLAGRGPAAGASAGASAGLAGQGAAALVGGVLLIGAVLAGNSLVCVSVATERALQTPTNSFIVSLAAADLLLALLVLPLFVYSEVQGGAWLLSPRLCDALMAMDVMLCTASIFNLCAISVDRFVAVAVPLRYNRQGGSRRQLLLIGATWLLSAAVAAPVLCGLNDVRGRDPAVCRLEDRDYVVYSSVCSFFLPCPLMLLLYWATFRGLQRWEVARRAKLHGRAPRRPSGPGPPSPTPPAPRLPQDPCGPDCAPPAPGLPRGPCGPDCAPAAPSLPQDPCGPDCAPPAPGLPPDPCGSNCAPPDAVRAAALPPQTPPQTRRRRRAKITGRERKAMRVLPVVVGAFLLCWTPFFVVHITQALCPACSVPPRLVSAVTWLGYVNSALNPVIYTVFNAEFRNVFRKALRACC

[13] = molecular target: T5, 5HT2C serotonergic receptor (Homo sapiens, UniProt P28335); assay: PDSP radioligand binding, 5HT2C
T5 sequence (P28335 33-458): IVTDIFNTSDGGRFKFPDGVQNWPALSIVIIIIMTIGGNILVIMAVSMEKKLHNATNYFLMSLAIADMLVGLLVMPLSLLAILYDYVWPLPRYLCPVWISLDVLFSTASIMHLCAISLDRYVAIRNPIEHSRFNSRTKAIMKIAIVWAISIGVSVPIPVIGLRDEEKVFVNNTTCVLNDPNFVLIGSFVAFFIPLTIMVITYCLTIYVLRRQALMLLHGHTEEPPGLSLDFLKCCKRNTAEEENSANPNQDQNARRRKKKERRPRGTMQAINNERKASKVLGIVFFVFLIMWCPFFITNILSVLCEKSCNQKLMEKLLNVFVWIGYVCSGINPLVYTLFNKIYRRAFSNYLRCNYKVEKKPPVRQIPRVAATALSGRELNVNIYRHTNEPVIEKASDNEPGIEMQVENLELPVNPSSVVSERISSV

[14] = full concentration-response curves, n = 3-6 unless noted
[15] = read-out: % inhibition at 10 µM

5HT2B serotonergic receptor, sequence (P41595 whole entry): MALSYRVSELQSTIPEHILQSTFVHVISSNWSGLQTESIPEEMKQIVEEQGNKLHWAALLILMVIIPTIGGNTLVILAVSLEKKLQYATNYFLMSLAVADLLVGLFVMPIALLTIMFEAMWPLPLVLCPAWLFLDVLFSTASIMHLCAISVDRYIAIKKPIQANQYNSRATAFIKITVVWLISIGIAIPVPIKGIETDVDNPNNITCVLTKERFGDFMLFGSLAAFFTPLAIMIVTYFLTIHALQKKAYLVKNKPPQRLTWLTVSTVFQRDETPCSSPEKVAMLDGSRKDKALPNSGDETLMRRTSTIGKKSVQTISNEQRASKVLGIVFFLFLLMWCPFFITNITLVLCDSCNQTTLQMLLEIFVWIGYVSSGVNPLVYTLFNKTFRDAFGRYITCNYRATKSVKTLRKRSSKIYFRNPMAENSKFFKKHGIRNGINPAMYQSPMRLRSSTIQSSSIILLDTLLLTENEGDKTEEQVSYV
β3 adrenergic receptor, sequence (P13945 whole entry): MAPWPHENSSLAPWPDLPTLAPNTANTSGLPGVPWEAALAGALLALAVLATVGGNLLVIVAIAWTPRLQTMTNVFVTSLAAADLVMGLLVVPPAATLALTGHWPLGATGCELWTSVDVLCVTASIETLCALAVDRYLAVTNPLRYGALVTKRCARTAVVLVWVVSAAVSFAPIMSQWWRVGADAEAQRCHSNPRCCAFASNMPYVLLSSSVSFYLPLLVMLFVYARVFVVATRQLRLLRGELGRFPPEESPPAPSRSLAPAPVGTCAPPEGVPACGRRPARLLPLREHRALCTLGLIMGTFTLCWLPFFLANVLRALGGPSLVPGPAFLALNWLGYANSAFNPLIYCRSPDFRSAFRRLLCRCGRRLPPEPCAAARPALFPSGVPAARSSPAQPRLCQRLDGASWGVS
5HT5A serotonergic receptor, sequence (P47898 whole entry): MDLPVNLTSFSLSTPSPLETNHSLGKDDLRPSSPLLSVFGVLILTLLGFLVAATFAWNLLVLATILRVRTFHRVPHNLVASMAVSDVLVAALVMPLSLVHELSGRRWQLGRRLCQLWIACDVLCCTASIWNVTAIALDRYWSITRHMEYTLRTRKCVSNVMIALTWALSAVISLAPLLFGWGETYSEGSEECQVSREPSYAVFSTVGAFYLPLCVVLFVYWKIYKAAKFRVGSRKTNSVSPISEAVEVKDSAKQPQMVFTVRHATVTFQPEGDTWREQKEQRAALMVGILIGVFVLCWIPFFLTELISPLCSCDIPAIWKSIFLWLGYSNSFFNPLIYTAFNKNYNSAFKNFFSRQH
M3 muscarinic acetylcholine receptor, sequence (P20309 whole entry): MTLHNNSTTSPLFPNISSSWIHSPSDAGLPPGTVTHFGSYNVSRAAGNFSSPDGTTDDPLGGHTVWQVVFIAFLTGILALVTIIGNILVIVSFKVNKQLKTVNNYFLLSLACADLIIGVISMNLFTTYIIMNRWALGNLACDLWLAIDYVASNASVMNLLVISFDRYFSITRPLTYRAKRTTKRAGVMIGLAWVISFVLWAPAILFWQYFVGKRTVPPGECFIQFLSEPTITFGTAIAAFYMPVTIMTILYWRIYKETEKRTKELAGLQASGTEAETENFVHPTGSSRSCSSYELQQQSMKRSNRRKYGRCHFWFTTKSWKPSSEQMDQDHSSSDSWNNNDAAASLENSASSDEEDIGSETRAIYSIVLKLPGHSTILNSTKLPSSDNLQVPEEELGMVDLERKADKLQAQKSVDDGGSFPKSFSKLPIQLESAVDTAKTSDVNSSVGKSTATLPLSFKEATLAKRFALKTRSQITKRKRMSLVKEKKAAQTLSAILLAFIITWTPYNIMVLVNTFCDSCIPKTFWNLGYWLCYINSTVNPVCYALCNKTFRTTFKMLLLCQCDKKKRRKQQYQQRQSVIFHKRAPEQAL
D2 dopaminergic receptor, sequence (P14416 whole entry): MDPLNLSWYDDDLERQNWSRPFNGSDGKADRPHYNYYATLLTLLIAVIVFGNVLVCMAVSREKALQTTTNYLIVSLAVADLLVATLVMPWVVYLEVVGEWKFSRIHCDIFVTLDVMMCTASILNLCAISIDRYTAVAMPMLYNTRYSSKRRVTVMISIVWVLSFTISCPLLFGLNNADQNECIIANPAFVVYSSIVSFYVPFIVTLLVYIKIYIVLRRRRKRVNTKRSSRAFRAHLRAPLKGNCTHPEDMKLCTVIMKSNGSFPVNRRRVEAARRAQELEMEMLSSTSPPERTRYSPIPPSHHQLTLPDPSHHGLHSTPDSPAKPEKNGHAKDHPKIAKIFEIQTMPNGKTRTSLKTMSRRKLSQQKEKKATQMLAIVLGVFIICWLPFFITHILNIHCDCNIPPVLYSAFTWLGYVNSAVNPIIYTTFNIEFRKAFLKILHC
δ opioid receptor, sequence (P41143 whole entry): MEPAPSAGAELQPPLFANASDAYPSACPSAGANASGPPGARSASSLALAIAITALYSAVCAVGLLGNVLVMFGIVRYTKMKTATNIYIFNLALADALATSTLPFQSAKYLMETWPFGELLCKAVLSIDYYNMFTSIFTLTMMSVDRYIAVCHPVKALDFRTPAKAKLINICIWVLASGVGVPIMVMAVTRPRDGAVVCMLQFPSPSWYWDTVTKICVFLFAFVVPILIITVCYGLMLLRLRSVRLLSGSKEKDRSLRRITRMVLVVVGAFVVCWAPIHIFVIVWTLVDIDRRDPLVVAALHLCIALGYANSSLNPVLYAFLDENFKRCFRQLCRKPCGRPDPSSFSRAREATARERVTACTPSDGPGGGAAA
D1 dopaminergic receptor, sequence (P21728 whole entry): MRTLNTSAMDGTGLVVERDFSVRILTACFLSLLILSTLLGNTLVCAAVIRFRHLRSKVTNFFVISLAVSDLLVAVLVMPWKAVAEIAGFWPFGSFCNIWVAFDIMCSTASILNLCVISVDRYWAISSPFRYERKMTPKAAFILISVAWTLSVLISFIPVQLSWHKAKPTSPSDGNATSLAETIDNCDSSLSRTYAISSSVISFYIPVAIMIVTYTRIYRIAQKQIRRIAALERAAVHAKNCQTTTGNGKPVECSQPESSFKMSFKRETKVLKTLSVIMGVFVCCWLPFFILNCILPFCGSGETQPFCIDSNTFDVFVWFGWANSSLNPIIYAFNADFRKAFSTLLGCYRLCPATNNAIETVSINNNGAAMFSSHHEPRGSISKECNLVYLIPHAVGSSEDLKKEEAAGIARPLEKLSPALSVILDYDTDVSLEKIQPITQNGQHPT

For `O[C@@H]1[C@H](O)[C@@H]2C[C@@H]2[C@H]1n1cnc2c(NC(C3CC3)C3CC3)nc(Cl)nc21` [Compound 10], the inhibition at 10 µM [1] was 0%, the inhibition at 10 µM [2] was 8% and the inhibition at 10 µM [3] was 0%. The inhibition at 10 µM [4] was 7%, the inhibition at 10 µM [5] was 0% and the “% inhibition at 10 µM” value [6] was 11%. The inhibition at 10 µM [7] was 0%, the inhibition at 10 µM [8] was 29% and the inhibition at 10 µM [9] was 0%. For the same compound, the inhibition at 10 µM [10] was 0%, the Ki [11, 14] was 640 nM and 641 nM and the inhibition at 10 µM [11, 15] was 47%. It also gave an inhibition at 10 µM [12] of 0%, a Ki [13, 14] of 1850 ± 460 nM and an inhibition at 10 µM [13, 15] of 49%.
